From patent US9301961B2, “Autoimmune and inflammatory disorder therapy” (Katholieke Universiteit Leuven, K.U. Leuven R&D, priority 2011, dated 2016) come the findings set out here.

The subject of assay [1] is cardiac allograft rejection. Nature of the assay: Cardiac allograft transplantation model, treatment day -1 to day 30 (Examples 7 and 8). The settings on record: Example 7. In kind it is in vivo, mice (C57BL/6 donor, Balb/c recipient).
Method: Inbreed C57BL/6 H-2b and Balb/c H-2d female mice, 8-10 weeks old, 20-25 g, were used as donor and recipient, respectively. Heterotopic heart transplantation was performed by implanting the donor heart on the neck of recipients using conventional microsurgery techniques. Graft beating was checked daily by inspection and palpation. Cessation of beating indicated graft rejection, which was confirmed by histological examination. Housing and all experimental animal procedures were approved by the Institutional Animal Care and Research Advisory Committee of the KU Leuven.
In a further assay the target is T1, PIK3CB (Homo sapiens, UniProt P42338).
T1 construct: made in house; host or cells: E. coli BL21-derived host (T7 phage) or HEK-293
Nature of the assay: Kinase-tagged phage competition binding assay (qPCR), 382-kinase library. (In general: Real-time PCR tracks product formation cycle by cycle.)

Another assay addresses T2, YSK4 (Homo sapiens, UniProt Q56UN5).
T2 construct: made in house; host or cells: E. coli BL21-derived host (T7 phage) or HEK-293
T2 sequence (Q56UN5 1-1328): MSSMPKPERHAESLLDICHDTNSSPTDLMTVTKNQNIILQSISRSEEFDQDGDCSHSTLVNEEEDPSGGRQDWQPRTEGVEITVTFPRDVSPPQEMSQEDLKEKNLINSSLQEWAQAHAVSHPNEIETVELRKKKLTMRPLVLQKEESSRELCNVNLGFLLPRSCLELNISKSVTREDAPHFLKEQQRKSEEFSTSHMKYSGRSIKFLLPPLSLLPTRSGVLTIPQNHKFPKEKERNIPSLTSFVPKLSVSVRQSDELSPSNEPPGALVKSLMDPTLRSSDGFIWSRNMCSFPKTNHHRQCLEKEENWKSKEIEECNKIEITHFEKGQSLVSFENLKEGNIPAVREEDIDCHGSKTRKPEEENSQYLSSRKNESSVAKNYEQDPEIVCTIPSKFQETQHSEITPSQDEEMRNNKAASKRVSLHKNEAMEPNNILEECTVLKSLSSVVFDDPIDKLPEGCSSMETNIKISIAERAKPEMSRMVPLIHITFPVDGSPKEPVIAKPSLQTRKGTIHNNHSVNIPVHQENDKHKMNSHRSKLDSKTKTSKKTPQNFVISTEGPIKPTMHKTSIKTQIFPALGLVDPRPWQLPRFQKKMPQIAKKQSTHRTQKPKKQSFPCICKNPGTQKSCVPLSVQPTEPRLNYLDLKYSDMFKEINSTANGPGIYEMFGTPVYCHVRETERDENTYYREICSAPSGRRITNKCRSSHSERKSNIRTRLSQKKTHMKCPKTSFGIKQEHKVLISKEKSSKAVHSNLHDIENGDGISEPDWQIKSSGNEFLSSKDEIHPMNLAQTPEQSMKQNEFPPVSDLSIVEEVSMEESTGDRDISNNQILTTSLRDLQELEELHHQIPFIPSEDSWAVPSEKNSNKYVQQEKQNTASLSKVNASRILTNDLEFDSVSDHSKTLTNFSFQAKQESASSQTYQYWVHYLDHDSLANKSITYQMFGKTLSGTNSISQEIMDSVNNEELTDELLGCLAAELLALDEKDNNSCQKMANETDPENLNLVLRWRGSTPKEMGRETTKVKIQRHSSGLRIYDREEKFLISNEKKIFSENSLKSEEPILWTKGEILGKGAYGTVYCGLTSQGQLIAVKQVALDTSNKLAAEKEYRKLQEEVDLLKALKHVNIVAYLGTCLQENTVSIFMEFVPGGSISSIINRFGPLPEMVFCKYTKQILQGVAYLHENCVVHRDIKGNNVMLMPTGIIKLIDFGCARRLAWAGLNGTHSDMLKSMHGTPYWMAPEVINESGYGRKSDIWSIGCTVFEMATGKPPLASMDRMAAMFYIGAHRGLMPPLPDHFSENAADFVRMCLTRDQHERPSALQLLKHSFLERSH
The assay is described as above.

A further assay deals with T3, RIOK2 (Homo sapiens, UniProt Q9BVS4).
T3 construct: made in house; host or cells: E. coli BL21-derived host (T7 phage) or HEK-293
The assay is described as above.

The subject of assay [2] is Peripheral blood mononuclear cells (PBMCs) mixed with mitomycin C treated RPMI1788 cells. Nature of the assay: Mixed lymphocyte reaction (MLR) assay, 3H-thymidine uptake.
From the text: In the MLR assay PBMCs from two individuals are mixed together in tissue culture for several days. […] In the one-way MLR test, the mononuclear cells from one of the individuals are inactivated (usually by treatment with mitomycin C or irradiation), thereby allowing only the untreated remaining population of mononuclear cells, such as lymphocytes, to proliferate in response to foreign histocompatibility antigens.
The immunosuppressive effect of test compounds was also investigated using MLR assays. Peripheral blood mononuclear cells (PBMCs) were isolated from heparinized blood of healthy donors by density-gradient centrifugation over Lymphoprep. […] RPMI1788 cells were treated with 30 μg/mL mitomycin C for 20 min at 37° C., washed four times with medium, and finally suspended in complete RPMI medium to a density of 0.45×10^6 cells/mL. An amount of 100 μL of each cell suspension was mixed with 20 μL of diluted compound. The mixed cells were cultured at 37° C. for 6 days in 5% CO2. […] Thereafter, the cells were harvested on glass filter paper and the counts per minute (cpm) determined in a liquid scintillation counter.
The next assay deals with T4, PI4KA (PI4K alpha) (Homo sapiens, UniProt P42356).
T4 construct: purchased Invitrogen
Nature of the assay: Commercial kinase activity assay (Invitrogen, ADP TR-FRET). In kind it is biochemical. The settings on record: 10 μM test compound.

In assay [3] the test system is murine splenocytes stimulated with α-CD3 antibody. Nature of the assay: Cytokine secretion after α-CD3 stimulation. The class given is cell-based, Balb/C mice. As to conditions: Mus musculus, Splenocyte, 24 h. The protocol: The ability of test compounds to inhibit cytokine release by murine splenocytes after stimulation with α-CD3 antibody was also investigated.
2×10^6 splenocytes from Balb/C female mice, 8-10 weeks old in 220 μl of complete medium were stimulated with 0.1 μg of hamster anti mouse CD3ε antibody in presence of various concentrations of test compounds. After 24 h of incubation at 37° C., 5% CO2, supernatant were collected and cytokine titers were determined by flow cytometry according manufacturer protocols (MCB United States, Arlington, Mass., USA).
The results are shown in FIG. 1 compared to a DMSO negative control (▾). […].

Another assay has as its target T5, LOK (Homo sapiens, UniProt O94804).
T5 construct: made in house; host or cells: E. coli BL21-derived host (T7 phage) or HEK-293
Nature of the assay: Kinase-tagged phage competition binding assay (qPCR), 382-kinase library.

The target of another assay is T6, PAK1 (Homo sapiens, UniProt Q13153).
T6 construct: made in house; host or cells: E. coli BL21-derived host (T7 phage) or HEK-293
The assay is described as above.

[4] abbreviates: 10 μM compound, read-out: % Inhibition of substrate binding.
Where [5] appears, read: stated for the 8 kinases of Table 1.

Where two headings read alike, the source gives them in different places.

T1 sequence (P42338 whole entry): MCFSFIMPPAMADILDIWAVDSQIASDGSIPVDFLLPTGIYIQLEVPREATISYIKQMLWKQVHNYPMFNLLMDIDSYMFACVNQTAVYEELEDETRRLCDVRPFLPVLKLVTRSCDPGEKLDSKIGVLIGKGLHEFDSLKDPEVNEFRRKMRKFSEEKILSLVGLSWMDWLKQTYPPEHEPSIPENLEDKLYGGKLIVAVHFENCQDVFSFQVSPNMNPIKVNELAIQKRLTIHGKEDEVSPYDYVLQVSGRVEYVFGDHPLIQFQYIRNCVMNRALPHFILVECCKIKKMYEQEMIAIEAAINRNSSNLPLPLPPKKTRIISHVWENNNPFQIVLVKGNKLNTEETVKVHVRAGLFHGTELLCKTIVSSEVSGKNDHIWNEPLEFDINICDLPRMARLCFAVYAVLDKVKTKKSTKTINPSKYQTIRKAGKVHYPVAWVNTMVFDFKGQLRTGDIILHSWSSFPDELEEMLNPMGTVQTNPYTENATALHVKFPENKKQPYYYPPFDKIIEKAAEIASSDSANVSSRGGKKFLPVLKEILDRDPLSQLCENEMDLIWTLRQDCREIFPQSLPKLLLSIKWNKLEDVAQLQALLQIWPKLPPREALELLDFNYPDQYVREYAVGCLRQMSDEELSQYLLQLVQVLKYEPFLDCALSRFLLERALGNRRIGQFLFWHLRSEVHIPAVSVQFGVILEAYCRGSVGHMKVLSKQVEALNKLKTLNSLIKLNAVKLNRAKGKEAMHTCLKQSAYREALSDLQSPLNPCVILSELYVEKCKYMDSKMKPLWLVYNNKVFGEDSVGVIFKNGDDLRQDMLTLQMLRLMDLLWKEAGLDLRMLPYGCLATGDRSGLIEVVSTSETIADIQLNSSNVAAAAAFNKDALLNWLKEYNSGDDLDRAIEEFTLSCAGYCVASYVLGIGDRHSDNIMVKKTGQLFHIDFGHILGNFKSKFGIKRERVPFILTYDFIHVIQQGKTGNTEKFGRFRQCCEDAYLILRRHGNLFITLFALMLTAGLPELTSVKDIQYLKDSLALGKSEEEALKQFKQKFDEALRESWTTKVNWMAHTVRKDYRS
T6 sequence (Q13153 whole entry): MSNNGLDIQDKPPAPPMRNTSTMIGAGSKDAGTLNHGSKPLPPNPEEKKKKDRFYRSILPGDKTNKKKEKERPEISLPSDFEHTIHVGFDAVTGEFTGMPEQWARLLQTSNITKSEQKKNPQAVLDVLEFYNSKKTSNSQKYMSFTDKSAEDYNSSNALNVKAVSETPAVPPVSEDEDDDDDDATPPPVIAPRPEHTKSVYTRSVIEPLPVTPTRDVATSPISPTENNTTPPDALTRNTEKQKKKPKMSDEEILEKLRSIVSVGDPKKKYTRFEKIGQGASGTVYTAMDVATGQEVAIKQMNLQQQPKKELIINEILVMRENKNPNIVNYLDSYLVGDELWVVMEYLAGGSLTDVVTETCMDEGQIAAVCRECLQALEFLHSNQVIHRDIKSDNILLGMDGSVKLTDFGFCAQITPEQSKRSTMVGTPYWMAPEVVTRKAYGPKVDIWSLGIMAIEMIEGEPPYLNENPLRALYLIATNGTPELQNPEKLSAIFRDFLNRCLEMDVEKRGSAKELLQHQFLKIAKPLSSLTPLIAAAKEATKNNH
T5 sequence (O94804 whole entry): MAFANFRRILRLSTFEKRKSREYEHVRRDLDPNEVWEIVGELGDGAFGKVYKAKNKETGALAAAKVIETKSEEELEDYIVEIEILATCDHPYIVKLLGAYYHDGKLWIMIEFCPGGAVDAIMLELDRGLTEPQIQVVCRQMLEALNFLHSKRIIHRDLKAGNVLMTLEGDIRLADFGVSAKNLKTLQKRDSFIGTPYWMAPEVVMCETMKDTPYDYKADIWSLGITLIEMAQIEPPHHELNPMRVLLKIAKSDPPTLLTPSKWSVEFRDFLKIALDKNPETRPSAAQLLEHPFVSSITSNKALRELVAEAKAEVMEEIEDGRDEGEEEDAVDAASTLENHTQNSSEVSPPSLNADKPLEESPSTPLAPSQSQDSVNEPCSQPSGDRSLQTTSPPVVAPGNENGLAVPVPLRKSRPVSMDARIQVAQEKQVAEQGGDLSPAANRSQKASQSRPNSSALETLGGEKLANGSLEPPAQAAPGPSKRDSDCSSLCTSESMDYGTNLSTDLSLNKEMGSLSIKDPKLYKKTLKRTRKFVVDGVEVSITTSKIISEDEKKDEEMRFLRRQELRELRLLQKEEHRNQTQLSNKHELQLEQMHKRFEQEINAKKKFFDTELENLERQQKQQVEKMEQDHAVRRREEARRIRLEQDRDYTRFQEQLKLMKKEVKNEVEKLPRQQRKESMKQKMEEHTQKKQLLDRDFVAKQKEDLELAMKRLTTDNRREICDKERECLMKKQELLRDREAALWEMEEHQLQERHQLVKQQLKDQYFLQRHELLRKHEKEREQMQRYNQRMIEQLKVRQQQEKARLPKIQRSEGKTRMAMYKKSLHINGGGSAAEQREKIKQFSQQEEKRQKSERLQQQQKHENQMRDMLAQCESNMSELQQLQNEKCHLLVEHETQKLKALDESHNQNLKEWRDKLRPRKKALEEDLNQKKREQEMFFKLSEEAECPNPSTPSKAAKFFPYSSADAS
T3 sequence (Q9BVS4 whole entry): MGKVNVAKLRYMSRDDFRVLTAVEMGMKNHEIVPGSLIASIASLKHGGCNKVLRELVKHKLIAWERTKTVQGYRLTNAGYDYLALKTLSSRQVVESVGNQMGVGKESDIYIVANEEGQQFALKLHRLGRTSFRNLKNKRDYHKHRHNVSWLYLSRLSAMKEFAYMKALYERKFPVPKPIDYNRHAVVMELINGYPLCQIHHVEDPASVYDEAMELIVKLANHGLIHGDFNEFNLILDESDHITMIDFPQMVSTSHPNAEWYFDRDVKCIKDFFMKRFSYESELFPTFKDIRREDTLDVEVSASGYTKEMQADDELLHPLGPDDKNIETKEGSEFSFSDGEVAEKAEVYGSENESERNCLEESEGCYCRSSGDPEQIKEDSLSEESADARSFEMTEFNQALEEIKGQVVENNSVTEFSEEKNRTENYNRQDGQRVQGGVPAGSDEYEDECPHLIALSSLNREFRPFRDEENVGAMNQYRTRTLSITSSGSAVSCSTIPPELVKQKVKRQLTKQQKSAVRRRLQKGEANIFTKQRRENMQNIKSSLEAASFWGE

Broadly, the inhibition is how much of the control response was suppressed. In general, IC50 refers to the concentration that inhibits the measured activity by half. As to `Nc1nc(N2CCN(C(=O)COc3ccc(Cl)cc3)CC2)c2nc(-c3cccnc3)sc2n1` [formula (1), 5-amino-7-[4-(4-chlorophenoxyacetyl)piperazin-1-yl]-2-(pyridin-3-yl)thiazolo[5,4-d]pyrimidine], the “grafts surviving as long as treatment continued” value in assay [1] (40 mg/kg daily gavage) was 3 out of 4. Also, the “graft function after withdrawal of the treatment” value in [1] (40 mg/kg daily gavage until day 30) is “continued beating after withdrawal of the treatment (up to 60 days)”. The inhibition at 10 µM on PIK3CB (setting [4]) worked out at 56%; at YSK4 (setting [4]) it was 79%; on RIOK2 (setting [4]), 94%; at LOK (setting [4]), 100%; at PAK1 (setting [4]), 54%. For the same compound, the concentration for half-maximal inhibition (IC50) on PIK3CB (setting [5]) is under 10000 nM; on YSK4 (setting [5]), under 10000 nM; on RIOK2 (setting [5]) it was under 10000 nM; in assay [2] (RPMI-1788, 144 h, read-out: IC50 MLR, 6 days culture), under 50 nM; in assay [2] (read-out: IC50 MLR, 6 days culture), 30 nM; in assay [3] (read-out: IC50 for inhibition of IFNγ release), 204 nM. The IC50 in assay [3] (read-out: IC50 for inhibition of IL2 release) was 76 nM; on LOK (setting [5]), under 10000 nM; at PAK1 (setting [5]) it was under 10000 nM. Moreover, the Kinase activity at PI4KA (PI4K alpha) is recorded as 99 percentage of control.
